# According to publication PMC7291858, “An Enhanced Variant Designed From DLP4 Cationic Peptide Against Staphylococcus aureus CVCC 546” (Frontiers in Microbiology, 2020):
# Peptide text beside a SMILES is read from it.
# System: S. aureus ATCC 43300
# Type: cell-based, Staphylococcus aureus
# Conditions: microtiter, serial 2-fold dilutions, 37°C, 16∼20 h, triplicate; – = no activity
# Procedure: The minimal inhibitory concentration (MIC) was evaluated by a microtiter plate assay ([Wiegand et al., 2008]). Serial 2-fold dilutions of test peptides were placed into a 96-well plate containing identical bacterial inoculum and incubated at 37°C for 16∼20 h. Vancomycin was used as antibiotic control. The MIC value was defined as the lowest peptide concentration where no visible growth occurred. All tests were made in triplicate.
row,SMILES,A1 (MIC against S. aureus ATCC 43300)
1,"CC[C@H](C)[C@@H]1NC(=O)[C@@H]2CSSC[C@@H](C(=O)N[C@@H](CCCNC(=N)N)C(=O)N[C@@H](CCCCN)C(=O)O)NC(=O)[C@H](CC(N)=O)NC(=O)[C@@H]3CSSC[C@H](NC(=O)[C@H](C)NC(=O)[C@H](C)NC(=O)[C@H](Cc4c[nH]cn4)NC(=O)CNC(=O)[C@H](C(C)C)NC(=O)CNC(=O)[C@H](Cc4ccccc4)NC(=O)[C@@H]4CCCN4C(=O)[C@H](CO)NC(=O)[C@H](CC(C)C)NC(=O)[C@H](CC(C)C)NC(=O)[C@H](CC(=O)O)NC(=O)[C@@H](NC(=O)[C@@H](NC(=O)[C@H](C)N)[C@@H](C)O)CSSC[C@H](NC(=O)[C@H](Cc4c[nH]c5ccccc45)NC(=O)CNC(=O)CNC(=O)[C@H](CCCNC(=N)N)NC(=O)[C@H](CCCCN)NC(=O)CNC(=O)[C@H](CCCNC(=N)N)NC(=O)[C@H](C)NC1=O)C(=O)N[C@@H](CC(=O)O)C(=O)N[C@@H](CCCCN)C(=O)N[C@@H](CCCNC(=N)N)C(=O)N[C@@H](C)C(=O)N[C@@H](C(C)C)C(=O)N3)C(=O)N[C@@H](C)C(=O)N[C@@H](C)C(=O)N[C@@H](Cc1c[nH]cn1)C(=O)N2 [ID11] (HELM PEPTIDE1{A.T.C.D.L.L.S.P.F.G.V.G.H.A.A.C.A.A.H.C.I.A.R.G.K.R.G.G.W.C.D.K.R.A.V.C.N.C.R.K}$PEPTIDE1,PEPTIDE1,3:R3-30:R3|PEPTIDE1,PEPTIDE1,16:R3-36:R3|PEPTIDE1,PEPTIDE1,20:R3-38:R3$$$V2.0; N-terminus and C-terminus assumed; bridges inferred)",16 µg/mL
2,"CC[C@H](C)[C@@H]1NC(=O)[C@@H]2CSSC[C@@H](C(=O)N[C@@H](CCCNC(=N)N)C(=O)N[C@@H](CCCCN)C(=O)O)NC(=O)[C@H](CC(N)=O)NC(=O)[C@@H]3CSSC[C@H](NC(=O)[C@H](C)NC(=O)[C@H](C)NC(=O)[C@H](Cc4c[nH]cn4)NC(=O)CNC(=O)[C@H](C(C)C)NC(=O)[C@H](CCCCN)NC(=O)[C@H](Cc4ccccc4)NC(=O)[C@@H]4CCCN4C(=O)[C@H](CO)NC(=O)[C@H](CC(C)C)NC(=O)[C@H](CC(C)C)NC(=O)[C@H](CC(=O)O)NC(=O)[C@@H](NC(=O)[C@@H](NC(=O)[C@H](C)N)[C@@H](C)O)CSSC[C@H](NC(=O)[C@H](Cc4c[nH]c5ccccc45)NC(=O)CNC(=O)CNC(=O)[C@H](CCCNC(=N)N)NC(=O)[C@H](CC(N)=O)NC(=O)CNC(=O)[C@H](CCCNC(=N)N)NC(=O)[C@H](C)NC1=O)C(=O)N[C@@H](CC(=O)O)C(=O)NCC(=O)N[C@@H](CCCNC(=N)N)C(=O)N[C@@H](C)C(=O)N[C@@H](C(C)C)C(=O)N3)C(=O)N[C@@H](C)C(=O)N[C@@H](C)C(=O)N[C@@H](Cc1c[nH]cn1)C(=O)N2 [ID18] (HELM PEPTIDE1{A.T.C.D.L.L.S.P.F.K.V.G.H.A.A.C.A.A.H.C.I.A.R.G.N.R.G.G.W.C.D.G.R.A.V.C.N.C.R.K}$PEPTIDE1,PEPTIDE1,3:R3-30:R3|PEPTIDE1,PEPTIDE1,16:R3-36:R3|PEPTIDE1,PEPTIDE1,20:R3-38:R3$$$V2.0; N-terminus and C-terminus assumed; bridges inferred)",16 µg/mL
